Consider seven molecules from article PMC10685318, “Trans-cyclosulfamidate mannose-configured cyclitol allows isoform-dependent inhibition of GH47 α-D-mannosidases through a bump–hole strategy” (Chemical Science, 2023).

Residue numbers refer to the chain shown, from its start. Names may count otherwise.

Data set [1] addresses GH47 model enzyme from Caulobacter K31 strain. To be noted: cited from earlier work.
Data set [2] can be described thus: Chemical stability of the final compounds on storage. The data set is classed as physicochemical. To be noted: storage for a week at room temperature. The text has this: 1,6-Cis-manno-cyclosulfate, 4, and 1,6-trans-manno-cyclosulfate, 5, were synthesized from mannose-configured cis-diol and trans-diol, respectively (ESI, Scheme S1 ^†).
Substrate in data set [3]: OC[C@H]1O[C@H](O[C@@H]2C(O)O[C@H](CO)[C@@H](O)[C@@H]2O)[C@@H](O)[C@@H](O)[C@@H]1O
The data set is described as follows: purified protein, by the assay type. To be noted: other: CkGH47 WT, substrate; pH 7.0.

Substrate in data set [4]: OC[C@H]1O[C@H](O[C@@H]2C(O)O[C@H](CO)[C@@H](O)[C@@H]2O)[C@@H](O)[C@@H](O)[C@@H]1O
Put plainly: purified protein, by the assay type. To be noted: other: CkGH47 L310S, substrate; pH 7.0. The data set is classed as biochemical, Caulobacter K31 strain. Here is the method:
Fig. 4 Catalytic activity of CkGH47 WT compared to the CkGH47 L310S mutant. […] (C) The Ki, derived from the gradient (1/Ki), for 6 against CkGH47 L310S.
Trans-Cyclosulfamidate Cyclitols Males et al.
2.1 Biochemical and biological methods
To obtain Michaelis-Menten kinetics
Lastly, to achieve an inhibition constant, the
The gradient of the graph, V0/Vi
After taking each time point, the sample was heat denatured at 95 °C for 5 minutes. The reactions were conducted in triplicate and averaged. […]
microplate spectrophotometer (BioTek). The mannose detection kit (Megazyme) was used to detect […]
dehydrogenase, was monitored at 340 nm. The absorbance after hexokinase was added to the mixture […]
2.1.2 Isothermal titration calorimetry
MicroCal ITC200 calorimeter at 25 °C over 20 injections. The experiment was duplicated to obtain a […]
the MicroCal PEAK-ITC analysis software.
2.2 Crystallographic data collection and refinement of CkGH47
3′ and the reverse primer was 5′-[…]-3′. Protein production and purification was followed as described previously.[3]
Reference data in the form of a
Refinement of the model was conducted […]
conformation was conducted using […]. Details of the data collection and refinement statistics […]
Figures of the structure were produced by using CCP4mg.

By Kd is commonly meant the concentration at which binding is half-saturated. In general, Km refers to the concentration of substrate that gives half-maximal velocity.

On to `OC[C@H]1NC[C@@H](O)[C@@H](O)[C@@H]1O` [DMJ, 1-deoxymannojirimycin], for which the equilibrium dissociation constant (Kd) in data set [1] was 481 nM.

Take `O=S1(=O)O[C@@H]2[C@@H](O)[C@@H](O)[C@H](O)[C@@H](CO)[C@@H]2O1` [compound 4, 1,6-cis-manno-cyclosulfate]: the stability on storage result in data set [2] is “compound degradation”.

As to `O=S1(=O)O[C@@H]2[C@@H](O)[C@@H](O)[C@H](O)[C@@H](CO)[C@H]2O1` [compound 5, 1,6-trans-manno-cyclosulfate], the stability on storage entry in data set [2] is recorded as “compound degradation”.

Consider `O=C1N[C@@H]2[C@@H](O)[C@@H](O)[C@H](O)[C@@H](CO)N2C1=O` [kifunensine], for which the Kd in data set [1] was 39 nM.

Regarding `OC[C@@H]1[C@@H](O)[C@H](O)[C@H](O)c2nccn21` [mannoimidazole], the Kd in data set [1] is 47 nM.

B1: CkGH47 WT (Caulobacter sp. K31) (protein)
chain: AAETTPEDWKALAADVRSEFQWAWQGYVAKAWGKDEINPVSGTSRSFFIEGHDLGLSLVEALDTLWIMGLDAEFQAGVDWVKANLSFDVDGNAQVFETNIRLVGGLLSAHLASGDPVLLAKARDLADRLAKAFEASPHGLPWRYVNLRTGAVSDPETNLAEIGTYLSEFGVLSQLTGERKYFDMAKRAMRHTLDRRSKIGLMAANIHAMTGAFTSRNASIDVYADSFYEYLWDAWALFGDEDCKRWAVECVDAQLAHQAKRYDGRLWFPMVDFETGAVTGTAQSELAAYYAGLLGQVGRKAQGDDYLASFTYLQATFGVIPESIDVTTGQPRRKHTGLRPEYPDACLNLWLIDRDPRYRRLAAIHYREMKATSRAAFGYTALKDITTRPMTQDDNCPGYWWSEQMKYYYLLFSDTPRIDYGQLQLSTEANVLRGFRKV
In the case of B1, the Michaelis-Menten constant (Km) in data set [3] is recorded as 65.7 ± 14.2 µM.

B2: CkGH47 L310S (Caulobacter sp. K31; L310S) (protein)
chain: B1 chain with L286S
With B2, in data set [4], the Michaelis-Menten constant (Km) is on record as 402.8 ± 71.3 µM.
